Calls of active or inactive are those of the source. How the calls were made is not given here.
Tested on: rodent lifetime carcinogenesis bioassay, tumor incidence TD50
Test: carcinogenic potency in animals, long-term in vivo studies, CPDB compilation (AID 1745844)
[1] = mouse, strain B6C3F1, females, in feed, site: any site (literature study), lesion: several types, types named in the paper, dosed 103 weeks, study length 105 weeks
[2] = mouse, strain B6C3F1, males, in feed, site: any site (literature study), lesion: several types, types named in the paper, dosed 103 weeks, study length 105 weeks
[3] = mouse, strain B6C3F1, males, in feed, site: liver, lesion: hepatocellular adenoma + hepatocellular carcinoma + neoplastic nodule, dosed 103 weeks, study length 105 weeks
[4] = rat, strain Fischer 344, males, in feed, site: any site (literature study), lesion: several types, types named in the paper, dosed 103 weeks, study length 105 weeks
[5] = rat, strain Fischer 344, males, in feed, site: urinary bladder, lesion: transitional-cell carcinoma, dosed 103 weeks, study length 105 weeks

## CCOc1nc2cccc(C(=O)OC(C)OC(=O)OC3CCCCC3)c2n1Cc1ccc(-c2ccccc2-c2nn[nH]n2)cc1 (centres undefined)
rat, strain Fischer 344/Jcl, females, in feed, site: any site (literature study), lesion: several types, types named in the paper, dosed 104 weeks, study length 104 weeks
  TD50: 11200 mg/kg/day (inactive)
rat, strain Fischer 344/Jcl, females, in feed, site: liver, lesion: hepatocellular adenoma, dosed 104 weeks, study length 104 weeks
  carcinogen call: negative (inactive)
rat, strain Fischer 344/Jcl, males, in feed, site: any site (literature study), lesion: several types, types named in the paper, dosed 104 weeks, study length 104 weeks
  carcinogen call: negative (inactive)
rat, strain Fischer 344/Jcl, males, in feed, site: liver, lesion: hepatocellular adenoma, dosed 104 weeks, study length 104 weeks
  carcinogen call: negative (inactive)

## Nc1ccc(O)c([N+](=O)[O-])c1
[1]
  carcinogen call: negative (inactive)
mouse, strain B6C3F1, females, in feed, site: liver, lesion: hepatocellular adenoma + hepatocellular carcinoma + neoplastic nodule, dosed 103 weeks, study length 105 weeks
  TD50: 3650 mg/kg/day
[2]
  carcinogen call: negative (inactive)
[3]
  TD50: 2250 mg/kg/day
rat, strain Fischer 344, females, in feed, site: urinary bladder, lesion: transitional-cell carcinoma, dosed 103 weeks, study length 105 weeks
  TD50: 1880 mg/kg/day
[4]
  TD50: 270 mg/kg/day
[5]
  TD50: 309 mg/kg/day

## Nc1nc(N)nc(N)n1
[1]
  carcinogen call: negative (inactive)
[2]
  TD50: 3200 mg/kg/day (inactive)
[3]
  TD50: 4370 mg/kg/day
rat, strain Fischer 344, females, in feed, site: any site (literature study), lesion: several types, types named in the paper, dosed 103 weeks, study length 105 weeks
  TD50: 3930 mg/kg/day
rat, strain Fischer 344, females, in feed, site: liver, lesion: hepatocellular adenoma + hepatocellular carcinoma + neoplastic nodule, dosed 103 weeks, study length 105 weeks
  TD50: 4410 mg/kg/day
rat, strain Fischer 344, females, in feed, site: thyroid gland, lesion: c-cell adenoma + c-cell carcinoma, dosed 103 weeks, study length 105 weeks
  TD50: 2470 mg/kg/day (inactive)
rat, strain Fischer 344, females, in feed, site: thyroid gland, lesion: c-cell carcinoma, dosed 103 weeks, study length 105 weeks
  TD50: 4160 mg/kg/day
[4]
  TD50: 149 mg/kg/day
rat, strain Fischer 344, males, in feed, site: urinary bladder, lesion: transitional-cell carcinoma + transitional-cell papilloma, dosed 103 weeks, study length 105 weeks
  TD50: 679 mg/kg/day
[5]
  TD50: 735 mg/kg/day

## CC(C)(C)NC(=O)[C@H]1CC[C@H]2[C@@H]3CC[C@H]4NC(=O)C=C[C@]4(C)[C@H]3CC[C@]12C
mouse, strain Charles River CD1, males, by gavage, site: testis, lesion: Leydig-cell adenoma, dosed 83 weeks, study length 83 weeks
  TD50: 326 mg/kg/day

## C=C1C[C@]23C[C@@]1(O)CC[C@H]2[C@@]12C=C[C@H](O)[C@@](C)(C(=O)O1)[C@H]2[C@@H]3C(=O)O
mouse, strain B6AKF1, females, oral dosing, site: any site (literature study), lesion: several types, types named in the paper, dosed 76 weeks, study length 76 weeks
  carcinogen call: negative (inactive)
mouse, strain B6AKF1, females, oral dosing, site: liver, lesion: hepatoma, dosed 76 weeks, study length 76 weeks
  carcinogen call: negative (inactive)
mouse, strain B6AKF1, females, oral dosing, site: lung, lesion: adenoma, dosed 76 weeks, study length 76 weeks
  carcinogen call: negative (inactive)
mouse, strain B6AKF1, males, oral dosing, site: any site (literature study), lesion: several types, types named in the paper, dosed 76 weeks, study length 76 weeks
  TD50: 151 mg/kg/day (inactive)
mouse, strain B6AKF1, males, oral dosing, site: liver, lesion: hepatoma, dosed 76 weeks, study length 76 weeks
  TD50: 316 mg/kg/day (inactive)
mouse, strain B6AKF1, males, oral dosing, site: lung, lesion: several types, types named in the paper, dosed 76 weeks, study length 76 weeks
  TD50: 460 mg/kg/day (inactive)
mouse, strain B6C3F1, females, oral dosing, site: any site (literature study), lesion: several types, types named in the paper, dosed 76 weeks, study length 76 weeks
  TD50: 1150 mg/kg/day (inactive)
mouse, strain B6C3F1, females, oral dosing, site: liver, lesion: hepatoma, dosed 76 weeks, study length 76 weeks
  carcinogen call: negative (inactive)
mouse, strain B6C3F1, females, oral dosing, site: lung, lesion: several types, types named in the paper, dosed 76 weeks, study length 76 weeks
  carcinogen call: negative (inactive)
mouse, strain B6C3F1, males, oral dosing, site: any site (literature study), lesion: several types, types named in the paper, dosed 76 weeks, study length 76 weeks
  TD50: 214 mg/kg/day (inactive)
mouse, strain B6C3F1, males, oral dosing, site: liver, lesion: hepatoma, dosed 76 weeks, study length 76 weeks
  TD50: 460 mg/kg/day (inactive)
mouse, strain B6C3F1, males, oral dosing, site: lung, lesion: adenoma, dosed 76 weeks, study length 76 weeks
  TD50: 952 mg/kg/day (inactive)
